According to US11911406B2, “PH-responsive polymer-drug conjugates for enhanced antibacterial efficacy” (priority 2020, dated 2024):

What was measured:
[1] = Streptomycin release kinetics (dialysis, HPLC); type: physicochemical
Experimental: Streptomycin release kinetics. […] The bags were put into the PBS buffers with the corresponding pH, and incubated in a 37° C. shaker. At different time intervals, 100 μL sample outside the dialysis bag was collected for HPLC analysis.

[2] = tested on: broad spectrum of microbes; experiment: MIC, broth microdilution, across the strains tested; type: cell-based; conditions: E. coli, MRSA, P. aeruginosa (FIGS. 3G-I)
Experimental: Bacterial strains. S. aureus Newman was kindly provided by Prof Douglas Weibel; E. coli ATCC25922, S. aureus ATCC 33591 and P. aeruginosa ATCC 27853 were kindly donated by Prof. David Andes. E. coli DH5a was purchased from Thermo Fisher. The bacteria above were grown in Mueller Hinton Broth (MHB) media (Criterion, Santa Maria, Calif., USA). M. smegmatis mc^2155 strain was kindly donated by Prof. Adel M. Talaat, and was grown in Middlebrook 7H9 broth (HiMedia, West Chester, Pa., USA).
Minimal inhibitory concentration (MIC) measurements. The MIC of the different treatments on various bacteria strains was determined using the broth microdilution method. Briefly, 100 μL of the respective broth media containing serial twofold dilutions of each compound was placed into a 96-well tissue culture plate. Each bacterial strain was taken from an exponentially growing culture and diluted to 5×10^6 CFU/mL. 10 μL of such microbial suspension was inoculated in each well of the plate, resulting in a final bacteria concentration of approximately 5×10^5 CFU/mL. The bacteria were cultured at 37° C. for 24 h and their growth were observed by reading the optical density (OD) at 600 nm. The MIC was determined as the treatment concentration at which no microbial growth was observed. […]

[3] = tested on: MRSA biofilm; experiment: Biofilm inhibition assay (crystal violet); type: cell-based, S. aureus
Experimental: Biofilm inhibition assays. Exponentially growing bacteria were inoculated into 96 well plates (1×10^4 cell/well) containing MHB broth with 2% (v/w) glucose, incubated under stationary conditions at 37° C. for one day. After biofilm formation, the media was discarded and the plates were washed with PBS to remove the planktonic bacteria. Fresh NMB broth containing serially diluted free streptomycin or PDC were added to the plates and incubated at 37° C. for another 24 h. The media in each well was then removed, and the plates were washed carefully with PBS for 1 time. The biofilm in each well was fixed with 95% ethanol for 15 min and stained with 0.1% crystal violet for 15 min. After washing with Milli-Q water for three times, 33% v/v acetic acid (100 μL/well) was added to solubilize the crystal violet staining. OD 560 in each well was read to determine the biofilm formation. The biofilm formed as described above was also stained with acridine orange and Cy5 labeled PDC, and monitored by CLSM to observe the PDC penetration.

[4] = tested on: E. coli ATCC 25922; experiment: Evaluation of antibiotic resistance development (serial passaging); type: cell-based; conditions: sub-lethal dose (0.5 MIC)
Experimental: Evaluation of antibiotic resistance development. E. coli ATCC 25922 was employed to study the drug resistance development under sublethal dose treatments of free streptomycin, cationic polymer or the PDC. During a serial of passages, the MIC of each treatment was measured by the broth microdilution method as described above, and the bacteria were exposed to ½MIC at that particular passage. MIC for each passage was recorded and normalized to that of the first passage to determine the drug resistance enhancement.

[5] = tested on: MRSA in Raw 264.7 macrophage; experiment: Antibacterial activity for intracellular infection; type: cell-based; conditions: Raw 264.7 infected with S. aureus, pH 7.4 and 6.0, 1 day
Experimental: (§1) Antibacterial activity for intracellular infection. The antibacterial activity for intracellular infection was tested following the previous report. Briefly, macrophage Raw 264.7 cells were seeded in 96-well plate at a density of 1×10^4 cell/swell overnight and infected with MRSA or P. aeruginosa at a ratio of 10-20 bacteria per macrophage in FBS free RPMI 1640 medium. After 3 h incubation, the cells were washed and cultured in 1640 medium containing 10% FBS and 50 μg/mL gentamycin for one day to prevent the growth of extracellular bacteria. Then the macrophages were treated with free streptomycin or PDC for another day and lysed with Milli-Q water supplemented with 0.1% Triton-X. The cell lysates were serially diluted and the CFU in each well was determined by plating on MHB agar plates.

[6] = tested on: P. aeruginosa in Raw 264.7 macrophage; experiment: Antibacterial activity for intracellular infection; type: cell-based; conditions: Raw 264.7 infected with P. aeruginosa, pH 7.4 and 6.0, 1 day
Experimental: as §1

[7] = tested on: E. coli ATCC 25922; experiment: Mouse thigh infection model; type: in vivo, ICR mice; conditions: single i.v. injection 1 h after infection, equivalent of 5 mg streptomycin/kg, thighs at 24 h
Experimental: Mouse thigh infection model. ICR mice (female, 22-24 g, Charles River) were intramuscularly inoculated with E. coli ATCC 25922 (2×10^8 CFU/mL in saline, 0.05 mL bacteria suspension per thigh) on their both thighs and randomly divided into 4 groups (n=3). The mice were treated with PBS, free streptomycin (5 mg/kg), […] through i.v. injection 1 h after the infection. 24 h after the inoculation, animals were euthanized by CO2 asphyxiation and thigh muscles were collected and homogenized in 5 mL cold PBS with glass homogenizer. The homogenates in the amount of 0.1 mL were used for serial tenfold dilutions and spread onto nutrient agar plate for CFU determination.

Hex-Cys-Cys-DET-strep-DMA [Neutralized PDC]
streptomycin release ([1]; pH 6.0, within 48 h): about 70% | streptomycin release ([1]; pH 7.4, at 48 h): about 20% | effect of pH (6.0 vs 7.4) on MIC, in words [2]: performed significantly better at pH 6.0 than at 7.4 | biofilm removed ([3]; equivalent of 32 μg/mL streptomycin, acidic conditions): More than 90% | biofilm eliminated ([3]; streptomycin concentration 16 μg/mL): 75% | increase in MIC after 20 passages [4]: 2 fold | antibacterial efficacy on intracellular bacteria (CFU), in words [5]: enhanced the antibacterial efficacy | antibacterial efficacy on intracellular bacteria (CFU), in words [6]: enhanced the antibacterial efficacy | reductions in CFU [7]: more than 4 orders
